pIC50: −log10 of the molar value.
Experiments:
[1] = biological target: T1, human DHODH (Homo sapiens, UniProt Q02127); test: DHODH enzymatic assay (DCIP absorbance, end-point); assay type: biochemical; conditions: purified human DHODH, DCIP as final electron acceptor, end-point mode; read-out: hDHODH IC50
T1 construct: purchased Proteros PR-0044
Method in brief: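 Purified human DHODH; end-point absorbance of DCIP reduction as terminal electron acceptor. Reaction started with substrate mix of 20 mM DHO, 5 mM CoQ6, 1 mM DCIP (substrate-solution concentrations) in […] pH 7.5, 150 mM NaCl, 0.5 mM EDTA, 0.1% Triton X-100.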

[2] = test system: MOLM-13 cells; test: MOLM-13 cellular assay (CellTiter-Glo cell viability); assay type: cell-based; conditions: 72 hours exposure, cell viability by CellTiter-Glo
Method in brief: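 Cells seeded at 5,000/well and exposed to graded compound concentrations for 72 h at 37° C, 5% CO2 immediately after seeding. Viability read by CellTiter-Glo luminescence.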

T1 sequence (Q02127 whole entry): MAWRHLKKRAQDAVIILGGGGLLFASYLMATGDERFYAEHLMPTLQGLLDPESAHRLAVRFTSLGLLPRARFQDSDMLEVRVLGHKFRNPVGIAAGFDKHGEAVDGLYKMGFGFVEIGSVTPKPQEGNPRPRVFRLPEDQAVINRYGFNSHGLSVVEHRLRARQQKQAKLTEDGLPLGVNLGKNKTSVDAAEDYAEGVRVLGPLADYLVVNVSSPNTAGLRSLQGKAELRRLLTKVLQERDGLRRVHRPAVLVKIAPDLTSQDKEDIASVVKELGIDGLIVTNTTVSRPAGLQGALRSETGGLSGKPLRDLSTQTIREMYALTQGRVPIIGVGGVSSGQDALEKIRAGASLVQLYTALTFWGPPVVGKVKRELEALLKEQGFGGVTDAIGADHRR

| SMILES | pIC50 [1] | pIC50 [2] | pIC50 ([2]; Homo sapiens, MOLM-13, 72 h) |
| --- | --- | --- | --- |
| C=C(C)[C@H]1CN(c2c(C)cc(C)nc2Cl)C(=O)c2cc(F)c(-n3nc(CO)n(CC)c3=O)cc21 (single isomer, unassigned; atropisomer 2) [Example 61, Atropisomer 2, (R*)-2-(2-Chloro-4,6-dimethylpyridin-3-yl)-6-(4-ethyl-3-(hydroxymethyl)-5-oxo-4,5-dihydro-1H-1,2,4-triazol-1-yl)-7-fluoro-4-(prop-1-en-2-yl)-3,4-dihydroisoquinolin-1(2H)-one] | 7.05 | 6.94 | – |
| CCn1c(CO)nn(-c2nc3c(cc2F)C(=O)N(c2c(F)cccc2Cl)CN3[C@@H](C)C(F)(F)F)c1=O [Example 8, (S)-3-(2-Chloro-6-fluorophenyl)-7-(4-ethyl-3-(hydroxymethyl)-5-oxo-4,5-dihydro-1H-1,2,4-triazol-1-yl)-6-fluoro-1-(1,1,1-trifluoropropan-2-yl)-2,3-dihydropyrido[2,3-d]pyrimidin-4(1H)-one] | > 9.30 | – | 8.77 |
| CCn1c(CO)nn(-c2cc3c(cc2F)C(=O)N(c2ccccc2Cl)CC3C(C)C)c1=O (single isomer, unassigned) [Example 37, (R *)-2-(2-Chlorophenyl)-6-(4-ethyl-3-(hydroxymethyl)-5-oxo-4,5-dihydro-1H-1,2,4-triazol-1-yl)-7-fluoro-4-isopropyl-3,4-dihydroisoquinolin-1(2H)-one] | 7.70 | 7.81 | – |
| CCC[C@H](C)N1CN(c2c(F)cccc2Cl)C(=O)c2cc(F)c(-n3nc(CO)n(CC)c3=O)nc21 [Example 24, (S)-3-(2-Chloro-6-fluorophenyl)-7-(4-ethyl-3-(hydroxymethyl)-5-oxo-4,5-dihydro-1H-1,2,4-triazol-1-yl)-6-fluoro-1-(pentan-2-yl)-2,3-dihydropyrido[2,3-d]pyrimidin-4(1H)-one] | 9.40 | – | > 8.77 |
| C=C(C)C1CN(c2c(F)cccc2Cl)C(=O)c2ccc(-n3nc(CO)n(CC)c3=O)cc21 (racemic) [Example 11, Racemic-2-(2-Chloro-6-fluorophenyl)-6-(4-ethyl-3-(hydroxymethyl)-5-oxo-4,5-dihydro-1H-1,2,4-triazol-1-yl)-4-(prop-1-en-2-yl)-3,4-dihydroisoquinolin-1(2H)-one] | 8.77 | – | 9.00 |
| C=C(C)C1CN(c2c(C)n[nH]c2Cl)C(=O)c2cc(F)c(-n3nc(CO)n(CC)c3=O)cc21 (single isomer, unassigned) [Example 48, (S*)-2-(5-Chloro-3-methyl-1H-pyrazol-4-yl)-6-(4-ethyl-3-(hydroxymethyl)-5-oxo-4,5-dihydro-1H-1,2,4-triazol-1-yl)-7-fluoro-4-(prop-1-en-2-yl)-3,4-dihydroisoquinolin-1(2H)-one] | 7.70 | 9.08 | – |

Other lines, results leading:

| pIC50 [1] | pIC50 [2] | pIC50 ([2]; Homo sapiens, MOLM-13, 72 h) | SMILES |
| --- | --- | --- | --- |
| < 7.00 | 7.53 | – | C=C(C)[C@H]1CN(c2c(C)cnc(OC)c2C)C(=O)c2cc(F)c(-n3nc(CO)n(CC)c3=O)cc21 (single isomer, unassigned; atropisomer 2) [Example 57, Atropisomer 2, (R*)-6-(4-Ethyl-3-(hydroxymethyl)-5-oxo-4,5-dihydro-1H-1,2,4-triazol-1-yl)-7-fluoro-2-(2-methoxy-3,5-dimethylpyridin-4-yl)-4-(prop-1-en-2-yl)-3,4-dihydroisoquinolin-1(2H)-one] |
| < 7.00 | 6.45 | – | CCn1c(CO)nn(-c2cc3c(cc2F)C(=O)N(c2c(C)cnc(OC)c2Cl)CC3C(C)C)c1=O (single isomer, unassigned) [Example 67, (R *)-2-(3-Chloro-2-methoxy-5-methylpyridin-4-yl)-6-(4-ethyl-3-(hydroxymethyl)-5-oxo-4,5-dihydro-1H-1,2,4-triazol-1-yl)-7-fluoro-4-isopropyl-3,4-dihydroisoquinolin-1(2H)-one] |
| 8.22 | – | 7.64 | CCn1c(CO)nn(-c2cc3c(cc2F)C(=O)N(c2c(F)cccc2Cl)CN3CC2CCCCC2)c1=O [Example 21, 3-(2-Chloro-6-fluorophenyl)-1-(cyclohexylmethyl)-7-(4-ethyl-3-(hydroxymethyl)-5-oxo-4,5-dihydro-1H-1,2,4-triazol-1-yl)-6-fluoro-2,3-dihydroquinazolin-4(1H)-one] |
| 8.22 | – | 7.84 | CCC(C)C1CN(c2c(F)cccc2Cl)C(=O)c2cc(F)c(-n3nc(CO)n(CC)c3=O)cc21 (single isomer, unassigned) [Example 70, (S*)-4-((RS)-sec-butyl)-2-(2-chloro-6-fluorophenyl)-6-(4-ethyl-3-(hydroxymethyl)-5-oxo-4,5-dihydro-1H-1,2,4-triazol-1-yl)-7-fluoro-3,4-dihydroisoquinolin-1(2H)-one] |
| 6.72 | – | < 8.52 | CCn1c(CO)nn(-c2ccc3c(c2)C(C(C)C)CN(c2cccc(F)c2)C3=O)c1=O (racemic) [Example 10, Racemic-6-(4-Ethyl-3-(hydroxymethyl)-5-oxo-4,5-dihydro-1H-1,2,4-triazol-1-yl)-2-(3-fluorophenyl)-4-isopropyl-3,4-dihydroisoquinolin-1(2H)-one] |
| 7.70 | 8.66 | – | C=C(C)[C@@H]1CN(c2c(C)cnc(OC)c2C)C(=O)c2cc(F)c(-n3nc(CO)n(CC)c3=O)cc21 (single isomer, unassigned; atropisomer 1) [Example 54, Atropisomer 1, (S*)-6-(4-Ethyl-3-(hydroxymethyl)-5-oxo-4,5-dihydro-1H-1,2,4-triazol-1-yl)-7-fluoro-2-(2-methoxy-3,5-dimethylpyridin-4-yl)-4-(prop-1-en-2-yl)-3,4-dihydroisoquinolin-1 (2H)-one] |
